What is called LD50 is the dose expected to kill half of the subjects tested. Lower therefore signals greater toxicity. In general, Ki refers to the equilibrium dissociation constant of an inhibitor or competing ligand from its target. Read a low Ki as a stronger hold on the target.

Consider nine compounds from patent US5595999A, “Guanidine derivatives” (Hoffmann-La Roche Inc., priority 1990, dated 1997).

Data set [1] in a line: Toxicity in mice upon intravenous administration. Particulars: mouse, in vivo. As for the experimental part: The guanidines of formula I have a low toxicity. Thus, the products of Example 8, 13a, 14i and 18f have an LD50 of 30-50mg/kg in mice upon intravenous administration.
The next data set concerns the target trypsin. Description: Inhibition of amidolytic activity of trypsin (chromogenic substrate S-2251). The format is biochemical. The conditions noted are these: S-2251, 200 and 750 μM final concentration, pH 7.8, room temperature. Here is the method: (§1) A differential inhibition of thrombin and other serine proteases by the above compounds is desirable in order to obtain compounds having as high a specificity as possible and at the same time to avoid possible side-effects.
(§2) Specific chromogenic peptide substrates can be used to determine the inhibition of the catalytic activity of the above proteases. The inhibition of the amidolytic activity of thrombin and trypsin by the above guanidines was determined as described hereinafter.
(§3) The measurements were carried out on microtiter plates at room temperature. For this, in each well of the plate 150 μl of buffer (50 mM Tris, 100 mM NaCl, 0.1% polyethylene glycol; pH 7.8) were mixed with 50 μl of the inhibitor dissolved in DMSO and diluted in the buffer, and 25 μl of human thrombin (0.5 nM final conc.) were added. After incubation for 10 minutes, the reaction was started by the addition of chromogenic substrate S-2238 (H-D-Phe-Pip-Arg-paranitroaniline from Kabivitrum; 10 or 50 μm final conc.) and the hydrolysis of the substrate was followed spectrophotometrically on a kinetic microliter plate reader for 5 minutes. After graphical presentation of the inhibition curves, the Ki values were determined according to the method described in Biochem. J. 55, 1955, 170-171. The inhibition of trypsin was effected analogously, but using the substrate S-2251 (H-D-Val-Leu-Lys-paranitroaniline) in 200 and 750 μM final concentration.

The next data set has as its target human thrombin (Homo sapiens, UniProt P00734). As to the kind of experiment: Inhibition of amidolytic activity of thrombin (chromogenic substrate S-2238). The conditions noted are these: human thrombin 0.5 nM final conc., S-2238, pH 7.8, room temperature. Format: biochemical. As for the experimental part:
as §1, §2, §3

In data set [1], `N=C(N)N1CCCC(CNC(=O)[C@@H](Cc2ccccc2[N+](=O)[O-])NS(=O)(=O)c2ccc3ccccc3c2)C1` (mixture of isomers) [Example 13a, (R)-N-[(RS)-1-Amidino-3-piperidinylmethyl]-α-(2-naphthylsulfonamido)-o-nitrohydrocinnamamide] came in with a median lethal dose (LD50) of 30 to 50 mg/kg. Besides, the Ki at trypsin amounted to 29200 nM; at human thrombin, 20.8 nM.

Regarding `N=C(N)N1CCCC(CNC(=O)[C@@H](Cc2c[nH]c3ccccc23)NS(=O)(=O)c2ccccc2[N+](=O)[O-])C1` (mixture of isomers) [Example 14i, (R)-N-[(RS)-1-Amidino-3-piperidinylmethyl]-α-(o-nitrobenzenesulfonamido)indole-3-propionamide], in data set [1], the LD50 was in the range of 30 to 50 mg/kg. Further, the Ki was determined as 38000 nM on trypsin and 25 nM on human thrombin.

Turning to `N=C(N)N1CCCC(CNC(=O)[C@@H](CN2C(=O)C(=O)c3ccccc32)NS(=O)(=O)c2ccc3ccccc3c2)C1` (some centres unmarked) [Example 8], the LD50 in data set [1] lay within 30 to 50 mg/kg. Moreover, the Ki at trypsin was determined as 20100 nM; on human thrombin, 8.55 nM.

As to `N=C(N)N1CCCC(CNC(=O)[C@@H](Cc2ccccc2)NS(=O)(=O)c2ccc3ccccc3c2)C1` (stereo partly drawn) [Example 9, (R)-N-[(RS)-1-amidino-3-piperidinylmethyl]-α-(2-naphthylsulfonamido)hydrocinnamide], the Ki at trypsin was 169000 nM; on human thrombin it was 135 nM.

Consider `N=C(N)N1CCC[C@@H](CNC(=O)[C@@H](Cc2c[nH]c3ccccc23)NS(=O)(=O)c2ccc(I)cc2)C1` [Example 17b, (R)-N-[(S)-1-Amidino-3-piperidinylmethyl]-α-(p-iodobenzenesulfonamido)indole-3-propionamide], for which the Ki stood at 6300 nM on trypsin and 20.7 nM on human thrombin.

For the compound `N=C(N)N1CCC[C@@H](COC(=O)[C@@H](Cc2c[nH]c3ccccc23)NS(=O)(=O)c2ccc(I)cc2)C1` [Example 17c, N-(p-Iodophenylsulfonyl)-D-tryptophan (R)-1-amidino-3-piperidinylmethyl ester], the Ki on trypsin worked out at 10000 nM; on human thrombin, 58 nM.

For the compound `N=C(N)N1CCC[C@@H](CNC(=O)[C@@H](Cc2ccc3ccccc3c2)NS(=O)(=O)c2ccc(I)cc2)C1` [Example 17f, (R)-N-[(S)-1-Amidino-3-piperidinylmethyl]-α-(p-iodobenzenesulfonamido)-2-naphthylpropionamide], the inhibition constant Ki on human thrombin was determined as 41.3 nM.

Consider `N=C(N)N1CCC[C@@H](CNC(=O)[C@@H](Cc2ccc([N+](=O)[O-])cc2)NS(=O)(=O)c2ccc(I)cc2)C1` [Example 17j, (R)-N-[(S)-1-Amidino-3-piperidinylmethyl]-α-(p-iodo-benzenesulfonamido)-p-nitrohydrocinnamamide], for which the figures for the inhibition constant Ki on trypsin and on human thrombin were 14800 nM and 26.1 nM, respectively.

Compound `N=C(N)N1CCCC(CNC(=O)[C@@H](CC(=O)c2ccccc2N)NS(=O)(=O)c2ccc3ccccc3c2)C1` (stereo partly drawn) [Example 18f, (R)-N-[(RS)-1-Amidino-3-piperidinylmethyl]-3-(o-aminobenzoyl)-2-(naphthylsulfonamido)propionamide] showed an LD50 in data set [1] of 30 to 50 mg/kg. Affinity at human thrombin was put at a Ki of 16 nM.
